The subject of one data set is INFB. Kind of data set: Immunogenicity: expression of intracellular inflammatory factor INFB by qPCR in Hela cells. It counts as cell-based. To be noted: 2 ug mRNA/well, 24 hours after transfection, relative to ^m7GpppApG cap, mean±SD. Here is the method:
In this example, Hela cells (ATCC CCL-2) were transfected with luciferase mRNAs (Gaussia luciferase) comprising various initial cap structures (the initial cap nucleotide structures comprised are: ^m7GpppApG, ^m7GpppA2′Ome pG, ^m7G3′OmepppA2′O-ethylpG, ^m7G2′OmepppA2′O-ethylpG, ^m7G3′OmeppA2′O-MOEpG, ^m7G2′OmepppA2′O-MOEpG, ^m7Gppp(N6-methyladenine)2′O-MOEpG, ^m7G2′OmepppC2′O-ethylpC, ^m7G3′OmepppA2′O-MOEpU), and collected after 24 hours. The expression of intracellular inflammatory factors was detected, and the relative abundance of the factors is in proportional to the immunogenicity of the mRNA.
(§1) Hela cells were seeded at a density of 4×10^5/well in 6-well plates, and transfection was carried out when the cell density reached approximately 80%. Each well was transfected with 2 ug mRNA, and the transfection reagent was Lipofectamine MessengerMAX Transfection Reagent (Invitrogen), and the transfection steps were carried out according to the instructions. Twenty-four hours after transfection, the cells were collected and TRIzol was used to extract RNAs which were then reverse transcribed into cDNAs. The expression of intracellular inflammatory factors was detected using real-time quantitative fluorescent PCR with B-actin as the internal reference. The detection of each gene was repeated 3 times, and the result of the expression of each gene is expressed as the relative value to the result of ^m7GpppApG cap.
as §1, with “The expression of intracellular inflammatory factors was detected, and the relative abundant of the factors is in proportional to the immunogenicity of the mRNA. Hela” for “Hela”, “β-actin” for “B-actin”
(In general: Quantitative PCR measures a nucleic acid by following its amplification.)

Another data set has as its system Hela cells (ATCC CCL-2). Kind of data set: Protein expression of Gaussia luciferase mRNA with various initial caps in transfected Hela cells. It counts as cell-based. The settings on record: 2 ug mRNA/well, 24 h after transfection, relative to ^m7GpppApG cap, mean±SD; for Relative Luciferase Unit RLU (after purification): HPLC-purified mRNA; for Relative Luciferase Unit RLU (no purification): unpurified mRNA. Here is the method:
In this example, Hela cells (ATCC CCL-2) were transfected with luciferase mRNAs (Gaussia luciferase) comprising various initial cap structures (the initial cap nucleotide structures comprised are: ^m7GpppApG, ^m7GpppA2′Ome pG, ^m7G3′OmepppA2′O-ethylpG, ^m7G2′OmepppA2′O-ethylpG, ^m7G3′OmepppA2′O-MOEpG, ^m7G2′O-mepppA2′O-MOEpG, ^m7Gppp(N6-methyladenine)2′O-MOEpG, ^m7G2′OmepppC2′O-ethylpC, ^m7G3′OmepppA2′O-MOEpU), and the signal intensity of luciferase was detected by microplate reader after 24 h. The fluorescence signal intensity was proportional to the abundance of protein expression. Hela cells were seeded at a density of 4×10^5/well in 6-well plates, and transfection was carried out when the cell density reached approximately 80%. Each well was transfected with 2 ug mRNA, and the transfection reagent was Lipofectamine MessengerMAX Transfection Reagent (Invitrogen), and the transfection steps were carried out according to the instructions. Twenty-four hours after transfection, the signal intensity of luciferase was measured on microplate reader. Measurement of luciferase fluorescence: the transfected cell culture solution was transferred to a 1.5 mL centrifuge tube and centrifuged, 10 ul of cell supernatant was taken and added to a 96-well plate, and 50 ul of 10 ng/ml substrate was added, and then the fluorescence intensity was measured on Synergy HI (BioTek) instrument. The expression of each mRNA was required to be measured 6 times and the expression results were relative values to the results of ^m7GpppApG cap.
The fluorescence signal intensity was proportional to the abundance of protein expression.
Hela cells were seeded at a density of 4×10^5/well in 6-well plates, and transfection was carried out when the cell density reached approximately 80%. Each well was transfected with 2 ug mRNA, and the transfection reagent was Lipofectamine MessengerMAX Transfection Reagent (Invitrogen), and the transfection steps were carried out according to the instructions. Twenty-four hours after transfection, the signal intensity of luciferase was measured on microplate reader. Measurement of luciferase fluorescence: the transfected cell culture solution was transferred to a 1.5 mL centrifuge tube and centrifuged, 10 ul of cell supernatant was taken and added to a 96-well plate, and 50 ul of 10 ng/ml substrate was added, and then the fluorescence intensity was measured on Synergy HI (BioTek) instrument. The expression of each mRNA was required to be measured 6 times and the expression results were relative values to the results of ^m7GpppApG cap.

Setting [1] is: Example 3 (IVT at 50° C.), β-actin reference.

On to ^m7G2′OmepppA2′O-MOEpG, for which the “Expression of INFB” value in the data set with INFB (Example 2, B-actin reference) is reported as 0.24 ± 0.03. For the same substance, in the data set with Hela cells (ATCC CCL-2) (Example 2), the “Relative Luciferase Unit RLU (after purification)” value is given as 5.11 ± 0.17 and the “Relative Luciferase Unit RLU (no purification)” value stood at 4.47 ± 0.07.
Take ^m7G2′OmepppA2′O-ethylpG: in the data set on INFB (Example 2, B-actin reference), the “Expression of INFB” value turned out to be 0.42 ± 0.02. Moreover, in the data set on Hela cells (ATCC CCL-2) (Example 2), the “Relative Luciferase Unit RLU (after purification)” value amounted to 3.34 ± 0.01 and the “Relative Luciferase Unit RLU (no purification)” value is reported as 2.83 ± 0.11.
Regarding ^m7G2′OmepppC2′O-ethylpC, the “Expression of INFB” value in the data set with INFB (Example 2, B-actin reference) is on record as 0.78 ± 0.01. Also, in the data set on Hela cells (ATCC CCL-2) (Example 2), the “Relative Luciferase Unit RLU (after purification)” value is 1.71 ± 0.18 and the “Relative Luciferase Unit RLU (no purification)” value was determined as 1.33 ± 0.06.
^m7G3′OmepppA2′O-MOEpG: the “Expression of INFB” value in the data set on INFB (Example 2, B-actin reference) is 0.41 ± 0.01. In the data set with Hela cells (ATCC CCL-2) (Example 2), the “Relative Luciferase Unit RLU (after purification)” value was 4.18 ± 0.16 and the “Relative Luciferase Unit RLU (no purification)” value came to 3.3 ± 0.13.
For ^m7G3′OmepppA2′O-MOEpU the same measures were 1.18 ± 0.08, 1.76 ± 0.12 and 1.32 ± 0.06.
For ^m7G3′OmepppA2′O-ethylpG the same measures were 0.47 ± 0.01, 2.73 ± 0.03 and 2.63 ± 0.15.
In the case of ^m7GAlpha-L-LNApppA2′O-ethyl pG, the “Expression of INFB” value in the data set with INFB (setting [1]) was 0.11 ± 0.03. In the data set with Hela cells (ATCC CCL-2) (Example 3 (IVT at 50° C.)), the “Relative Luciferase Unit RLU (after purification)” value is reported as 2.97 ± 0.09 and the “Relative Luciferase Unit RLU (no purification)” value amounted to 2.67 ± 0.02.
For ^m7GBeta-D-LNApppA2′O-MOEpG the same measures were 0.09 ± 0.02, 3.45 ± 0.01 and 3 ± 0.12.
For the substance ^m7Gppp(N6-methyladenine)2′O-MOEpG, in the data set on INFB (Example 2, B-actin reference), the “Expression of INFB” value turned out to be 0.46 ± 0.02. Further, in the data set on Hela cells (ATCC CCL-2) (Example 2), the “Relative Luciferase Unit RLU (after purification)” value is on record as 3.23 ± 0.07 and the “Relative Luciferase Unit RLU (no purification)” value amounted to 2.98 ± 0.02.
For ^m7GpppA2′Ome pG [reference compound], the “Expression of INFB” value with INFB (Example 2, B-actin reference) is recorded as 0.61 ± 0.01; in the data set on INFB (setting [1]), 0.63 ± 0.04. The “Relative Luciferase Unit RLU (after purification)” value in the data set on Hela cells (ATCC CCL-2) (Example 2) was 3.3 ± 0.13; in the data set on Hela cells (ATCC CCL-2) (Example 3 (IVT at 50° C.)), 1.56 ± 0.11. For the same substance, the “Relative Luciferase Unit RLU (no purification)” value in the data set with Hela cells (ATCC CCL-2) (Example 2) was determined as 2.94 ± 0.02; with Hela cells (ATCC CCL-2) (Example 3 (IVT at 50° C.)), 1.25 ± 0.11.
For ^m7GpppApG [reference compound], the “Expression of INFB” value is 1 ± 0.08 in the data set on INFB (Example 2, B-actin reference) and 1 ± 0.13 in the data set with INFB (setting [1]). The “Relative Luciferase Unit RLU (after purification)” value in the data set on Hela cells (ATCC CCL-2) (Example 2) is 1 ± 0.19; in the data set with Hela cells (ATCC CCL-2) (Example 3 (IVT at 50° C.)), 1 ± 0.12. In addition, the “Relative Luciferase Unit RLU (no purification)” value with Hela cells (ATCC CCL-2) (Example 2) and in the data set with Hela cells (ATCC CCL-2) (Example 3 (IVT at 50° C.)) was 1 ± 0.02 each time.

The record behind these values is patent US20250136634A1, “CAP ANALOG AND USE THEREOF” (SHANGHAI HONGENE BIOTECH CORPORATION, priority 2021, published 2025).
